# Tests used:
# [1] = system: DANG; test: Cell cycle analysis; type: cell-based, human; settings: 2 days
# Description: The area of each bar is divided to indicate the percentage of cells in G0/G1, S and G2 phase.
# Cells were plated in six-well plates, and 5-6 hours later chemotherapeutic agents were added for either 24 h 48 h or 3 days. Cells floating in the medium were combined with the adherent cell layer, which was trypsinized. Cells were washed. Either cell cycle analysis was started directly or cell surface staining was done before as described above. Cells are resuspended in 1 ml PBS and added to 3 ml 4% PFA. After 15 min fixation of cells at room temperature cells are pelleted and washed. For RNAse treatment cells were resuspended in 200 μl RNAse (10000 U/ml) plus 0.05% Triton X-100 and incubated for 30 min at 37° C. 1 ml PBS was added and samples were centrifuged and resuspended in 200 μl PBS/PJ 50 μg/ml. At least 30 min later samples were ready to be analyzed by flow cytometry. Cell cycle phase distribution was determined using FlowJo software to analyze DNA content histograms.
# [2] = system: BxPC3-CLDN18; test: IMAB362 mediated apoptosis of gemcitabine treated pancreas tumor cells; type: cell-based, human; settings: BxPC3-CLDN18, medium or 100 ng/ml gemcitabine, after 48 hours
# Description: BxPC3-CLDN18 were cultivated in medium or medium+100 ng/ml gemcitabine. Apoptotic cell fraction of […] were shifted. Similar shifts were obtained by incubation of tumor cells with Camptotecin.
# Following the indicated treatments, apoptosis was measured by annexin V binding (detection kit I) or by a DNA fragmentation assay (Apo-Direct) as recommended by the manufacturer (PharMingen, San Diego, Calif.). Briefly, cells floating in the supernatant were combined with the adherent fraction, which was trypsinized and then washed. An aliquot of 5 E+05 cells was incubated with annexin V-APC and PI for 15 min at room temperature in the dark. Cells were immediately analyzed by flow cytometry. Viable cells exclude both annexin V-APC and PI. Early apoptotic cells are annexin V-APC-positive and PI-negative, whereas cells that are no longer viable due to apoptotic or necrotic cell death are positively stained by both annexin V and PI. Percentage of stained cells in each quadrant was quantified using FlowJo software (BD Biosciences, Franklin Lakes, N.J.).
# The apoptotic assay based on DNA fragmentation was performed as follows. Treated cells (adherent and floating) were fixed in 70% icecold EtOH overnight. […] Cells were rinsed, incubated in RNase A/propidium iodide in the dark for 30 min at room temperature to stain total DNA, then analyzed by flowvcytometry. […]
# [3] = system: CLDN18.2 on the cell surface of pancreatic cancer cell lines; test: Flow cytometry (FACS) of IMAB362 on pancreatic cancer cell lines; type: binding, human; settings: 2E5 cells/100 μl with 50 μg/ml IMAB362
# Description: Cells were harvested with PBS/5 mM EDTA or Trypsin/EDTA from an exponentially growing culture at 70-85% confluency. Cells were counted, centrifuged for 5 min (468 g) and the pellet was resuspended in FACS buffer (2% FCS, 0.1% sodium azide in PBS) adjusting the concentration to 2×10^6/ml. 100 μl cells were plated in round bottom 96-well plates and again centrifuged (5 min, 468 g). […] Then, 200 μl FACS buffer was added to each well and plates were centrifuged (5 min, 468 g). The supernatant was removed and washing was repeated. Secondary goat anti-human antibodies (FC specific, F(ab′)2 conjugated with APC (Dianova)) were diluted (1:100) in FACS buffer and 30 μl was added to each well. Plates were incubated for 30 min at 4° C. After incubation plates were washed again two times with 200 μl FACS buffer and the pellet was finally resuspended in 100 μl FACS buffer for measurement FACS Array Bioanalyzer (BD) according to GA_018_BD FACS Array bioanalyzer.
# [4] = system: Panc02.03; test: IMAB362-mediated ADCC assay; type: cell-based, human; settings: at least 2 donors
molecule,measurement,setting,value
"Nc1ccn([C@@H]2O[C@H](CO)[C@@H](O)C2(F)F)c(=O)n1 [gemcitabine, 4-amino-1-(2-deoxy-2,2-difluoro-β-D-erythro-pentofuranosyl)pyrimidin-2(1H)-one]",cell cycle effect,[1],cell cycle arrest of cells in S-Phase
"IMAB362: chimeric IgG1 antibody directed against CLDN18.2, developed by Ganymed Pharmaceuticals AG",induction of apoptosis,[2],Apoptosis induced by cross-linking
same,CLDN18 surface expression (FACS),[3]; AsPC1,0.14%
same,CLDN18 surface expression (FACS),[3]; BxPC3 (ATCC),1.16%
same,CLDN18 surface expression (FACS),[3]; BxPC3 (ECACC),0.90%
same,CLDN18 surface expression (FACS),[3]; CAPAN1,0.54%
same,CLDN18 surface expression (FACS),[3]; CFPAC1,0.55%
same,CLDN18 surface expression (FACS),[3]; DANG,1.19%
same,CLDN18 surface expression (FACS),[3]; HPAC,0.81%
same,CLDN18 surface expression (FACS),[3]; HPAFII,10.00%
same,CLDN18 surface expression (FACS),[3]; HUP-T3,0.23%
same,CLDN18 surface expression (FACS),[3]; HUP-T4,5.30%
same,CLDN18 surface expression (FACS),[3]; KP-2,0.54%
same,CLDN18 surface expression (FACS),[3]; MiaPaCa2,0.22%
same,CLDN18 surface expression (FACS),[3]; Panc01,65%
same,CLDN18 surface expression (FACS),[3]; Panc03.27,7.30%
same,CLDN18 surface expression (FACS),[3]; Panc04.03,1.38%
same,CLDN18 surface expression (FACS),[3]; Panc05.04,15%
same,CLDN18 surface expression (FACS),[3]; Patu8902,0.39%
same,CLDN18 surface expression (FACS),[3]; Patu8988T,6.00%
same,CLDN18 surface expression (FACS),[3]; SW1990,2.53%
same,CLDN18 surface expression (FACS),[3]; Su86.86,1.51%
same,CLDN18 surface expression (FACS),[3]; Suit2,0.41%
same,CLDN18 surface expression (FACS),[3]; YPAC,0.23%
same,ADCC EC50,[4],n.m.
same,ADCC Max. lysis,[4],n.m.
